{"source": "patent US20210317111A1", "about": "“NOVEL MEDICAMENT FOR TREATING INFLAMMATORY BOWEL DISEASE” (OTSUKA PHARMACEUTICAL CO., LTD., priority 2018, published 2021)", "key": {"[1]": {"tested_on": "TNF-α production", "assay": "inhibition of LPS-induced TNF-α production in human peripheral blood (ELISA)", "format": "cell-based", "details": "human peripheral blood, 24 hours; for inhibitory activity for TNF-α production over concentration range: 1, 3, 10, 30, 100 μM", "protocol": "The LPS solution which was adjusted to 2 μg/mL with RPMI 1640 medium was added to 48-well plate in the amount of 250 μL/well. The each diluted solution of each test compound and the diluted solution of the solvent control were added to 3 wells for each concentration in the amount of 50 μL/well, 4-fold diluted solution of human peripheral blood was added to each well (200 μL/well), and the wells were incubated at 37° C. in 5% CO2 for 24 hours. As LPS (−) control, RPMI 1640 medium without added LPS was prepared in the same manner. The final concentrations of each test sample were adjusted to 0, 1, 3, 10, 30, and 100 μM, and the final concentration of prednisolone was adjusted to 0.3 μM. 24 hours later from the incubation, each supernatant was collected and stored at −80° C. until the measurement of the TNF-α concentration.\nThe TNF-α concentration was measured by ELISA with Human TNF-alpha Quantikine ELISA Kit (R & D Systems). Each sample was unfrozen at room temperature, and diluted with Calibrator Diluent RD6-35 (1×) of the kit by 10-fold. The 10-fold diluted supernatant and the TNF-α standard solution were added on TNF-α microplate, and reacted according to the operating manual of the kit. After the coloring, the absorbance at wave length of 450 nm was measured with a microplate reader (Multiskan FC; Thermo Fisher […]), and the calibration curve was prepared with an analysis software (Skanit Software 3.1.0.4 RE for Multiskan FC (ja)) to read the TNF-α concentration of each sample. Calibration curve used a 4-parameter logistic curve.\nThe inhibition rates were presented as the mean±standard deviation using Microsoft Excel 2010. For each blood donor, the TNF-α production rate under each compound concentration was calculated with the TNF-α concentration in the supernatant of the solvent group as 100%.\nThe results are averages of the measurements obtained from the human peripheral blood of three volunteers."}, "[2]": {"tested_on": "Mycobacterium avium subspecies paratuberculosis (MAP)", "assay": "antibacterial activity (MIC), broth microdilution method", "format": "cell-based", "details": "336 h", "protocol": "The chronic enterocolitis of ruminants which is caused by Mycobacterium avium subspecies paratuberculosis (MAP) is similar to Crohn's disease. […] Thus, the antibacterial activity of the present compound against MAP was evaluated. The used comparative drugs for the present compound were rifaximin (RFX), ciprofloxacin (CPFX), metronidazole (MTZ), clarithromycin (CAM), rifabutin (RBT), and clofazimine (CFZ).\nThe antibacterial activity (minimum inhibitory concentration (MIC)) was assayed by broth microdilution method which is based on Clinical and laboratory standards institute (CLSI).\nThe 5 strains of MAP were inoculated onto Middlebrook 7H9 agar containing 10% dubos oleic albumin complex (OADC), Tween 80 (0.5 g/L), mycobactin J (2 mg/L), and 1.5% agar, and pre-cultured at 37° C. under an aerobic condition for 14 days. After the pre-culture, the bacterial cell was scraped out from the agar, and prepared to the turbidity of 0.5 Mcfarland standard using Middlebrook 7H9 broth containing 10% dubos oleic albumin complex (OADC), Tween 80 (0.5 g/L), and mycobactin J (2 mg/L)]. The 10-fold diluted solution of the bacterial suspension was inoculated onto Middlebrook 7H9 broth 96-well plate which contains the present compound or any one of the comparative drugs, and incubated at 37° C. under an aerobic condition for 14 days.\nAfter the incubation, the bacterial growth in each well of the 96-well plate was visually checked. The minimum concentration at which the bacterial growth was not observed, compared with the result of the well containing neither present compound nor comparative drug was determined as MIC of the present compound or each comparative drug against each test bacterium."}, "[3]": {"tested_on": "naive T cell transfer model of colitis", "assay": "naive T cell transfer model of colitis (Crohn's disease mouse model), histological scoring of large intestine", "format": "in vivo", "details": "from 2nd week after transplantation for 2 weeks; present compound, CPFX, RFX oral once a day 10 mg/kg; antibody 25 mg/kg i.p. twice a week; 4th week", "description": "From spleen of Balb/c mouse, naive T cell (CD4+CD62L+CD44−) was isolated with antibody-coated magnetic beads. The isolated naive T cell (5×10^5 cells/mouse) was transplanted in abdominal cavity of SCID mouse which is a severe combined immunodeficiency animal. The present compound was orally administered to the mouse once a day at each dose defined in Table 1 below, from the first day of the transplantation for Test 1, or from the 2nd week after the transplantation for Test 2, until 5 weeks after the transplantation. [table] […] The anti-TNF-α antibody was intraperitoneally administered to the mouse twice a week at each dose defined in Table 2 below, from the 2nd week after the transplantation, for 2 weeks. [table] At 5th week for Tests 1 and 2, and at 4th week for Test 3, the large intestine was removed, and the length and weight of the large intestine were measured. In addition, the large intestine was fixed with formalin to carry out pathological analysis. From the removed large intestine, the anus part, the center part, and the cecal part were cut out each in about 0.5 cm, and each part was fixed with formalin. The paraffin block thereof was prepared, sliced, and subjected to H&E staining. The H&E stained slice was examined with a microscope to score it histologically. The histological scoring was carried out by scoring the inflammatory cell infiltrate, the Goblet cell loss, and the hyperplasia of mucosal epithelium, based on the standard (0-4) defined in Table 3 below. [table]"}, "[4]": {"tested_on": "Fusobacterium spp.", "assay": "antibacterial activity (MIC), agar plate dilution method", "format": "cell-based", "details": "17 strains of Fusobacterium spp.; anaerobic, 37° C.", "protocol": "There are plural reports about the relationship between intestinal bacteria and inflammatory bowel disease, and it is thought that Fusobacterium spp., one of the intestinal bacteria is a pathogenic bacteria causing inflammatory bowel disease. […] The antibacterial activity (minimum inhibitory concentration (MIC)) was assayed by agar plate dilution method which is based on Clinical and laboratory standards institute (CLSI). The medium used herein was Brucella medium with sheep blood. […] The bacterial suspension was inoculated onto Brucella agar with sheep blood which contains the present compound or any one of the comparative drugs, and incubated at 37° C. under an anaerobic condition."}, "[5]": {"tested_on": "TNBS-induced enteritis", "assay": "TNBS-induced enteritis model", "format": "in vivo, rat", "details": "100 mg/kg orally twice a day; 12 rats per group", "protocol": "An enteritis animal model induced with 2,4,6-trinitrobenzenesulfonic acid (TNBS) is widely used as Crohn's disease model since the inflammatory finding is pathologically similar to that of human Crohn's disease. In addition, the enteritis model was used in the non-clinical study of mesalazine that is a medicament for treating Crohn's disease. Thus, this enteritis model was used as Crohn's disease model for evaluating the present compound.\nRats were made to be fasted for 24 or 48 hours, and the body weight were measured. The rats were laparotomized under isoflurane anesthesia, and 50% ethanol (0.25 mL) containing 60 mg/mL 2,4,6-trinitrobenzenesulfonic acid (TNBS) was injected into the large intestine from the cecum side toward the anal side to induce the injury. Each group composed of 12 rats was set, and vehicle, the present compound, or salazosulfapyridine (SASP) which is an already-existing drug for treating inflammatory bowel disease were administered for 7 days from the first day after the injection of TNBS. On the 8th day, each rat was laparotomized under anesthesia and killed by exsanguination. The large intestine was removed from the anus to the cecum, the large intestine was longitudinally incised, and the incised large intestine was washed with a cold saline. The lesion area of the large intestine was photographed with a digital camera. The area of the lesion area in the photograph of the large intestine was measured using image analyzing program.\nEach compound was orally administered at a dose of 100 mg/kg twice a day from one day after inducing enteritis with TNBS. Each area of the lesion area on the 8th day was compared."}, "[6]": {"tested_on": "DSS-induced colitis", "assay": "DSS-induced colitis model, stool scores", "format": "in vivo, rat", "description": "A colitis model induced by dextran sulfate sodium (DSS) is widely used as an experimental ulcerative colitis model having similarities of human ulcerative colitis regarding suppression of weight gain, colitis symptoms such as bloody stools and diarrhea, and injury formation in the large intestine. The effect of the present compound on the ulcerative colitis model was examined, and it was compared with salazosulfapyridine (SASP) clinically used as a therapeutic agent for ulcerative colitis.\nSymptoms of colitis were induced by allowing rats to freely drink 3% dextran sulfate sodium (DSS) solution for 10 days. […] For the observation of stool symptoms, the degree of stool condition was scored as the score of stool firmness (Stool Consistency Score: 0, 1, 2, 3) and blood stool (Bloody Stool Score: 0, 1, 2, 3). The total of Stool Consistency Score and Bloody Stool Score was taken as the Total Stool Score. Each group was composed of 8 animals. Salazosulfapyridine (SASP), which is an already-existing drug for treating inflammatory bowel disease, the present compound or the vehicle were administrated for 10 days from the start date of 3% DSS freely drinking."}, "[7]": {"details": "11th day, present compound 1, 3, 10 mg/kg (P<0.01) or SASP 100 mg/kg (P<0.05) orally twice a day, Dunnett's test"}}}
{"smiles": "Nc1ccc(O)c(C(=O)O)c1", "note": "[5-ASA, 5-aminosalicylic acid]", "values": [{"measurement": "inhibitory activity for TNF-α production over concentration range", "setting": "[1]", "value": "no inhibitory activity"}]}
{"smiles": "CC[C@H]1OC(=O)[C@H](C)[C@@H](O[C@H]2C[C@@](C)(OC)[C@@H](O)[C@H](C)O2)[C@H](C)[C@@H](O[C@@H]2O[C@H](C)C[C@H](N(C)C)[C@H]2O)[C@](C)(OC)C[C@@H](C)C(=O)[C@H](C)[C@@H](O)[C@]1(C)O", "note": "[CAM, clarithromycin]", "values": [{"measurement": "MIC", "setting": "[2]", "value": "0.12 to 0.25", "unit": "mg/L"}]}
{"smiles": "CC(C)/N=c1\\cc2n(-c3ccc(Cl)cc3)c3ccccc3nc-2cc1Nc1ccc(Cl)cc1", "note": "[CFZ, clofazimine]", "values": [{"measurement": "MIC", "setting": "[2]", "value": "0.12 to 0.5", "unit": "mg/L"}]}
{"smiles": "O=C(O)c1cn(C2CC2)c2cc(N3CCNCC3)c(F)cc2c1=O", "note": "[CPFX, ciprofloxacin]", "values": [{"measurement": "histological score (Test 3, comparative study)", "setting": "[3]", "value": "little or no inhibitory effect"}, {"measurement": "inhibition at 100 µM", "setting": "[1]; 100 μM, read-out: inhibitory effect on TNF-α production at 100 μM", "value": "< 50", "unit": "%"}, {"measurement": "inhibitory activity for TNF-α production over concentration range", "setting": "[1]", "value": "dose-dependent inhibitory effect at a concentration of 30 μM or more"}, {"measurement": "MIC", "setting": "[4]", "value": "2 to 8", "unit": "mg/L"}, {"measurement": "MIC", "setting": "[2]", "value": "0.25 to 0.5", "unit": "mg/L"}]}
{"smiles": "Cc1ncc([N+](=O)[O-])n1CCO", "note": "[MTZ, metronidazole]", "values": [{"measurement": "MIC", "setting": "[4]", "value": "0.03 to 0.5", "unit": "mg/L"}, {"measurement": "MIC", "setting": "[2]", "value": "> 128", "unit": "mg/L"}]}
{"smiles": "CO[C@H]1/C=C/O[C@@]2(C)Oc3c(C)c(O)c4c(c3C2=O)C2=NC3(CCN(CC(C)C)CC3)NC2=C(NC(=O)/C(C)=C\\C=C\\[C@H](C)[C@H](O)[C@@H](C)[C@@H](O)[C@@H](C)[C@H](OC(C)=O)[C@@H]1C)C4=O", "note": "[RBT, rifabutin]", "values": [{"measurement": "MIC", "setting": "[2]", "value": "0.25 to 1", "unit": "mg/L"}]}
{"smiles": "CO[C@H]1/C=C/O[C@@]2(C)Oc3c(C)c(O)c4c(O)c(c5c(nc6cc(C)ccn65)c4c3C2=O)NC(=O)/C(C)=C\\C=C\\[C@H](C)[C@H](O)[C@@H](C)[C@@H](O)[C@@H](C)[C@H](OC(C)=O)[C@@H]1C", "note": "[RFX, rifaximin]", "values": [{"measurement": "histological score (Test 3, comparative study)", "setting": "[3]", "value": "little or no inhibitory effect"}, {"measurement": "inhibitory activity for TNF-α production over concentration range", "setting": "[1]", "value": "no inhibitory activity"}, {"measurement": "MIC", "setting": "[2]", "value": "1 to 2", "unit": "mg/L"}]}
{"smiles": "O=C(O)c1cc(/N=N/c2ccc(S(=O)(=O)Nc3ccccn3)cc2)ccc1O", "note": "[SASP, salazosulfapyridine, reference compound]", "values": [{"measurement": "number of death during the treatment", "setting": "[5]", "value": "two"}, {"measurement": "day from which suppression of stool score deterioration was observed", "setting": "[6]; 100 mg/kg orally twice a day", "value": "from the 9th day"}, {"measurement": "deaths", "setting": "[6]; 100 mg/kg orally twice a day, 8 animals per group", "value": 2}, {"measurement": "bloody stool score vs vehicle control", "setting": "[6]; 11th day, present compound 1 mg/kg (P<0.05), 3, 10 mg/kg (P<0.01) or SASP 100 mg/kg orally twice a day, Dunnett's test", "value": "not significant"}, {"measurement": "stool firmness (Stool Consistency Score) vs vehicle control", "setting": "[6]; [7]", "value": "significant differences"}, {"measurement": "total stool score vs vehicle control", "setting": "[6]; [7]", "value": "significant differences"}]}
